Measurements as given in US20120225909A1, “INDAZOLE ANALOG” (priority 2009, published 2012).

How the values were obtained:
[1] = biological target: T1, human β1-adrenergic receptor (Homo sapiens, UniProt P08588); experiment: Test Case 2-C: human β1-adrenergic receptor agonist activity (Cerep cellular functional GPCR, beta 1); format: cell-based; conditions: concentration 10 μM, isoproterenol = 100%
T1 construct: expressed in transfected cells; host or cells: CHO (Chinese hamster ovary) cells, pcDNA3
From the text: (§1) Measurement of Human β1-Adrenergic Receptor Agonist Activity

[2] = biological target: T2, human β2-adrenergic receptor (Homo sapiens, UniProt P07550); experiment: Test Case 3-C: human β2-adrenergic receptor agonist activity (Cerep cellular functional GPCR, beta 2); format: cell-based; conditions: concentration 10 μM, isoproterenol = 100%
T2 construct: expressed in transfected cells; host or cells: CHO (Chinese hamster ovary) cells, pcDNA3
From the text: (§2) Measurement of Human β2-Adrenergic Receptor Agonist Activity

[3] = biological target: T3, human α1A-adrenergic receptor (Homo sapiens, UniProt P35348); experiment: Test Case 4-B: human α1A-adrenergic receptor agonist activity (Cerep cellular functional GPCR, alpha 1A); format: cell-based; set-up: expressed in transfected cells; conditions: concentration 10 μM; for α1 receptor % of Control Agonist Response, Control; Epinephrine: epinephrine = 100%; for α1 receptor % of Control Agonist Response, Control; Norepinephrine: norepinephrine = 100%
T3 sequence (P35348 1-466): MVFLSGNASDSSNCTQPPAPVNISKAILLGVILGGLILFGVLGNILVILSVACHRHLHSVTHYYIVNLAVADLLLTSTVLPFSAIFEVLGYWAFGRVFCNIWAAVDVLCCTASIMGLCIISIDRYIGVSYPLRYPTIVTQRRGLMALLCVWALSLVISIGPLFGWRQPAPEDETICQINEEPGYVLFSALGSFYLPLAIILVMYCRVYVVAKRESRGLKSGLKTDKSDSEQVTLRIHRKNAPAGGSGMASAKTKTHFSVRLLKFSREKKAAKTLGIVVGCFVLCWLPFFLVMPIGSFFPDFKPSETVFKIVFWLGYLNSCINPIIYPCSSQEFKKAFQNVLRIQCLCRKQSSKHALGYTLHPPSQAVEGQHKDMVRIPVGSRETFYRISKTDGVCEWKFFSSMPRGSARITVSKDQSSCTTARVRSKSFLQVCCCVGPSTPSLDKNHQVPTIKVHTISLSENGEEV
From the text: Measurement of Human α1A-Adrenergic Receptor Agonist Activity
The human α1A-adrenergic receptor agonist activity] can be measured by […] Functional GPCR·Gs, alpha 1A (Ref. 722-36a) listed on p. 52 of the Cerep 2008 CATALOG IN VITRO PHARMACOLOGY & ADME-TOX.

[4] = biological target: T4, human β3-adrenergic receptor (Homo sapiens, UniProt P13945); experiment: Test Case 1-B: human β3-adrenergic receptor agonist activity (cAMP-Screen, 96-well); format: cell-based
T4 construct: A full-length human β3 gene is obtained from a human genomic library (made by Clontech) using this as the probe; expressed in transfected cells; host or cells: CHO (Chinese hamster ovary) cells, pcDNA3
In short: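 CHO cells stably transfected with full-length human β3 gene, serum-starved 15 min, then exposed to serially diluted compound in Ham's F-12 with 100 mmol/L HEPES and 1 mmol/L IBMX (diluent concentrations) for 30 min. Cells lysed 30 min at 37 °C; cAMP quantified by cAMP-Screen immunoassay.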

[5] = biological target: T1, human β1-adrenergic receptor; experiment: Test Case 2-B: human β1-adrenergic receptor agonist activity; format: cell-based; conditions: read-out: β1 receptor I.A.
Experimental: as §1
The human β1-adrenergic receptor agonist activity is measured by the same method as in Test Case 1-B using CHO (Chinese hamster ovary) cells transfected by a human β1 gene inserted in pcDNA3 (Invitrogen).

[6] = biological target: T2, human β2-adrenergic receptor; experiment: Test Case 3-B: human β2-adrenergic receptor agonist activity; format: cell-based; conditions: read-out: β2 receptor I.A.
Experimental: as §2
The human β2-adrenergic receptor agonist activity is measured by the same method as in Test Case 1-B using CHO (Chinese hamster ovary) cells transfected by a human β2 gene inserted in pcDNA3 (Invitrogen).

Male C57BL/6 Cr mice = experiment: Test Case 10: mouse piloerection test; format: in vivo; conditions: 10 mg/kg i.v.
Experimental: Male C57BL/6 Cr mice (Japan SLC) are used. The dissolved compound is administered rapidly via a caudal vein. The animal is placed on the observation stand 5, 15, 30, and 60 minutes after administration, and the state of piloerection is observed. The state of piloerection is evaluated by the following 7-level scoring system according to the examples by the method of Irwin (Psychopharmacologia 1968, 13; 222-257).
Scoring system: “Score 0”: No piloerection at all; “Score 1”: Slight piloerection (piloerection on part of the body such as the back or neck); “Score 2”: Moderate piloerection (piloerection over the entire body); “Score 3”: Marked piloerection (piloerection over the entire body, conspicuous to the extent that the skin can be seen).
“Score 0.5” is between “Score 0” and “Score 1” “Score 1.5” is between […]. “Score 2.5” is between “Score 2” and “Score 3.”

[7] = biological target: T3, human α1A-adrenergic receptor; experiment: Test Case 4-A: human α1A-adrenergic receptor agonist activity (HEK293, Ca flux, Fura-2); format: cell-based; set-up: expressed in transfected cells; host or cells: HEK293 cells, pcDNA3.1; conditions: HEK293; read-out: α1A receptor I.A.
In short: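 Fura-2AM-loaded HEK293 cells transfected with human α1A were preincubated for 180 s. Compound (sample plate 10^−5 to 10^−12 M) was added after ~30 s of 340/380 nm excitation ratio reading (500 nm emission, 2-s intervals), followed by 270 s more reading. Ca flux is the peak height: maximum ratio after addition minus the pre-addition ratio.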

T2 sequence (P07550 whole entry): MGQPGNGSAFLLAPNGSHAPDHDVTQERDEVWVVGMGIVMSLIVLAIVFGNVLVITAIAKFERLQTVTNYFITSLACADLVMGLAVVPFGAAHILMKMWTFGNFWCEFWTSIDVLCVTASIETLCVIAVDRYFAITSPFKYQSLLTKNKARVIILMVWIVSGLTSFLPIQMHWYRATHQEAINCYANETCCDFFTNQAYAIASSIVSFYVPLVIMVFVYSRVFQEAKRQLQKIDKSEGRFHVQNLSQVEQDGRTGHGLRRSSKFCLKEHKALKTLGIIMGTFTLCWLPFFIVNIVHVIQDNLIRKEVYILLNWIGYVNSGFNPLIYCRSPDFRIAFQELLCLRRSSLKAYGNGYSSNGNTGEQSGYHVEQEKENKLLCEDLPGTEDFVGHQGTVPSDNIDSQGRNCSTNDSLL
T1 sequence (P08588 whole entry): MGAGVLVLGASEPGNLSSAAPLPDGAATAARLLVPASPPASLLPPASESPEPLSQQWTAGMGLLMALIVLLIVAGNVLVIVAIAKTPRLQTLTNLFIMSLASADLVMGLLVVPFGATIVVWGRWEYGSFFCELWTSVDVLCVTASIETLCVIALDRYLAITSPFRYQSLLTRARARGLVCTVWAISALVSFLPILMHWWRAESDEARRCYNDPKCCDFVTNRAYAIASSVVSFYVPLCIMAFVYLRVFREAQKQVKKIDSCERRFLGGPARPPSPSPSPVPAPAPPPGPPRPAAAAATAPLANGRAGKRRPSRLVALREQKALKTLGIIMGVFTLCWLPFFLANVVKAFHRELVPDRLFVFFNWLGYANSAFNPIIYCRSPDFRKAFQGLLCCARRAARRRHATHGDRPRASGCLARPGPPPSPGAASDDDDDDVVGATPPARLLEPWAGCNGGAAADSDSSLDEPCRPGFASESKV
T4 sequence (P13945 whole entry): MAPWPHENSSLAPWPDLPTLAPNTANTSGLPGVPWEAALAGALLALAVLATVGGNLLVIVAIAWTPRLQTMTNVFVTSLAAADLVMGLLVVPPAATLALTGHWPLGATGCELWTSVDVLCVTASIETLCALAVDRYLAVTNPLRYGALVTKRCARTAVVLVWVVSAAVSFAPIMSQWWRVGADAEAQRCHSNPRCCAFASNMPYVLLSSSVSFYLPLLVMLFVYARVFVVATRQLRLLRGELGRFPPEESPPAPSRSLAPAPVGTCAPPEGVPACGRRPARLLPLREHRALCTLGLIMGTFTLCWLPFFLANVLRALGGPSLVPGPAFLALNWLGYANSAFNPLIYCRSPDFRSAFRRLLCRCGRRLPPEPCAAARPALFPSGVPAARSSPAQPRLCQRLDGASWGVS

| β1 receptor % of Control Agonist Response [1] [%] | β2 receptor % of Control Agonist Response [2] [%] | α1 receptor % of Control Agonist Response, Control; Epinephrine [3] [%] | α1 receptor % of Control Agonist Response, Control; Norepinephrine [3] [%] | SMILES | also measured |
| --- | --- | --- | --- | --- | --- |
| 9.4 | −0.2 | 0.7 | 0.6 | Nc1ccc(F)c(S(=O)(=O)Nc2cccc([C@@H](O)CNCCOc3ccc4c(Cl)n[nH]c4c3)c2)c1 [ex242, (R)-5-amino-N-(3-(2-(2-(3-chloroindazole-6-yloxy)ethylamino)-1-hydroxyethyl)phenyl)-2-fluorobenzenesulfonamide] | – |
| 15 | 3.7 | 25 | 21 | Cc1n[nH]c2cc(OCCNC[C@H](O)c3cccc(NS(=O)(=O)c4ccc(Cl)c(N)c4)c3)ccc12 [ex7, (R)-3-amino-4-chloro-N-(3-(1-hydroxy-2-(2-(3-methylindazol-6-yloxy)ethylamino)ethyl)phenyl)benzenesulfonamide] | – |
| 7.0 | 3.2 | 8.1 | 7.0 | O=S(=O)(Nc1cccc([C@@H](O)CNCCOc2ccc3c(Cl)n[nH]c3c2)c1)c1ccsc1 [ex157, (R)-N-(3-(2-(2-(3-chloroindazol-6-yloxy)ethylamino)-1-hydroxyethyl)phenyl)thiophene-3-sulfonamide] | – |
| 15 | 0.8 | −0.2 | −0.2 | CCc1n[nH]c2cc(OCCNC[C@H](O)c3cccc(NS(=O)(=O)c4cc(N)ccc4F)c3)ccc12 [ex148, (R)-5-amino-N-(3-(2-(2-(3-ethylindazol-6-yloxy)-ethylamino)-1-hydroxyethyl)phenyl)-2-fluorobenzene-sulfonamide] | – |
| – | – | – | – | CCc1n[nH]c2cc(OCCNC[C@H](O)c3cccc(NS(=O)(=O)C4CC4)c3)ccc12 [ex124, (R)-N-(3-(2-(2-(3-ethylindazol-6-yloxy)ethylamino)-1-hydroxyethyl)phenyl)-cyclopropanesul-fonamide] | Emax ([4]; 0.5 h, read-out: β3 receptor I.A.): 52%; EC50 ([4]; Test Case 1-B, CHO cells, cAMP): 13 nM; Emax [5]: -6%; Emax [6]: -1%; number of experimental animals matching Score 0 (no piloerection) (Male C57BL/6 Cr mice; n=4, observation time 5 min): 2; number of experimental animals matching Score 0.5 (Male C57BL/6 Cr mice; n=4, observation time 5 min): 1; number of experimental animals matching Score 1 (slight piloerection) (Male C57BL/6 Cr mice; n=4, observation time 5 min): 1; number of experimental animals matching Score 0.5 (Male C57BL/6 Cr mice; n=4, observation time 15 min): 3; number of experimental animals matching Score 1 (slight piloerection) (Male C57BL/6 Cr mice; n=4, observation time 15 min): 1; number of experimental animals matching Score 0 (no piloerection) (Male C57BL/6 Cr mice; n=4, observation time 30 min): 2; number of experimental animals matching Score 0.5 (Male C57BL/6 Cr mice; n=4, observation time 30 min): 2; number of experimental animals matching Score 0 (no piloerection) (Male C57BL/6 Cr mice; n=4, observation time 60 min): 2; number of experimental animals matching Score 0.5 (Male C57BL/6 Cr mice; n=4, observation time 60 min): 2; Emax [7]: 0% |
| 10 | 0.3 | 16 | 14 | CCc1n[nH]c2cc(OCCNC[C@H](O)c3cccc(NS(=O)(=O)c4ccccc4F)c3)ccc12 [ex128, (R)-N-(3-(2-(2-(3-ethylindazol-6-yloxy)ethylamino)-1-hydroxyethyl)phenyl)-2-fluorobenzene-sulfonamide] | – |
| 7.2 | 1.9 | 0.6 | 0.5 | O=S(=O)(Nc1cccc([C@@H](O)CNCCOc2ccc3c(C(F)(F)F)n[nH]c3c2)c1)c1cccnc1 [ex186, (R)-N-(3-(1-hydroxy-2-(2-(3-(trifluoromethyl)-indazol-6-yloxy)ethylamino)ethyl)phenyl)pyridine-3-sulfonamide] | – |
| 12 | – | – | – | O=S(=O)(Nc1cccc([C@@H](O)CNCCOc2ccc3c(Cl)n[nH]c3c2)c1)c1cccnc1 [ex155, (R)-N-(3-(2-(2-(3-chloroindazol-6-yloxy)ethylamino)-1-hydroxyethyl)phenyl)pyridine-3-sulfonamide] | β2 receptor % of Control Agonist Response ([2]; 10 µM): 2.2%; α1 receptor % of Control Agonist Response, Control; Epinephrine ([3]; 10 µM): 0%; α1 receptor % of Control Agonist Response, Control; Norepinephrine ([3]; 10 µM): 0% |
| 8.0 | 8.8 | 17 | 15 | O=S(=O)(Nc1cc([C@@H](O)CNCCOc2ccc3c(C(F)(F)F)n[nH]c3c2)ccc1Cl)C1CC1 [ex199, (R)-N-(2-chloro-5-(1-hydroxy-2-(2-(3-(tri-fluoromethyl)-indazol-6-yloxy)ethylamino)-ethyl)phenyl)-cyclo-propanesulfonamide] | – |
| 3.5 | −0.5 | 19 | 17 | O=S(=O)(Nc1cccc([C@@H](O)CNCCOc2ccc3c(C(F)(F)F)n[nH]c3c2)c1)c1cn[nH]c1 [ex198, (R)-N-(3-(1-hydroxy-2-(2-(3-(trifluoromethyl)-indazol-6-yloxy)ethylamino)ethyl)phenyl)-pyrazole-4-sulfonamide] | – |
| 13 | 0.3 | 6.4 | 6 | Nc1ccc(F)c(S(=O)(=O)Nc2cccc([C@@H](O)CNCCOc3ccc4c(C(F)(F)F)n[nH]c4c3)c2)c1 [ex185, (R)-5-amimo-2-fluoro-N-(3-(1-hydroxy-2-(2-(3-(trifluoro-methyl)-indazol-6-yloxy)ethylamino)ethyl)phenyl)ben-zenesulfonamide] | – |

| SMILES | β1 receptor % of Control Agonist Response [1] [%] | β2 receptor % of Control Agonist Response [2] [%] | α1 receptor % of Control Agonist Response, Control; Epinephrine [3] [%] | α1 receptor % of Control Agonist Response, Control; Norepinephrine [3] [%] | also measured |
| --- | --- | --- | --- | --- | --- |
| Nc1ccc(F)c(S(=O)(=O)Nc2cccc([C@@H](O)CNCCOc3ccc4c(OC(F)F)n[nH]c4c3)c2)c1 [ex106] | 11 | 2.1 | −0.2 | −0.2 | – |
